Measurements published in patent publication US12404244B2, “Pan-KIT kinase inhibitor having quinoline structure and application thereof” (Tarapeutics Science Inc., priority 2018, dated 2025).
Read-outs that look alike come from different tables or passages of the source.

How the values were obtained:
BaF3 = assay: Proliferation of parental BaF3 cells (CCK-8); format: cell-based, mouse; conditions: Mus musculus, read-out: GI50 BaF3
Source text: (§1) Compounds as provided herein were further evaluated for their inhibitory effects on proliferation of cancer cells by testing their effects on growth of cancer cells. In this example the following cells were used: primary mouse B cells BaF3 (purchased from ATCC), GIST-T1 cells of the human gastrointestinal stromal tumor cell line (expressing wild-type KIT gene) (purchased from Cosmo Bio Co., Ltd. (Japan)). The present lab further constructed and used the following: mouse Tel-Kit-BaF3 (stably expressing KIT wild-type kinase), mouse Tel-Kit/T670I-BaF3 (stably expressing KIT T670I mutant kinase), mouse Tel-Kit/V559A-BaF3 (stably expressing KIT V559A mutant kinase), mouse Tel-Kit/V559D-BaF3 (stably expressing KIT V559D mutant kinase), mouse Tel-Kit/V559G-BaF3 (stably expressing KIT V559G mutant kinase), mouse Tel-Kit/V560D-BaF3 (stably expressing KIT V560D mutant kinase), mouse Tel-Kit/L576P-BaF3 (stably expressing KIT L576P mutant kinase), mouse Tel-Kit/V654A-BaF3 (stably expressing KIT V654A mutant kinase), mouse Tel-Kit/V654A/V559D-BaF3 (stably expressing KIT V654A V559D mutant kinase), mouse Tel-Kit/T670E-BaF3 (stably expressing KIT T670E mutant kinase), mouse Tel-Kit/T670I/V559D-BaF3 (stably expressing KIT T670I V559D mutant kinase), mouse Tel-Kit/S709F-BaF3 (stably expressing KIT S709F mutant kinase), mouse Tel-Kit/D816E-BaF3 (stably expressing KIT D816E mutant kinase), mouse Tel-Kit/D816H-BaF3 (stably expressing KIT D816H mutant kinase), mouse Tel-Kit/D820E-BaF3 (stably expressing KIT D820E mutant kinase), mouse Tel-Kit/D820G-BaF3 (stably expressing KIT D820G mutant kinase), mouse Tel-Kit/D820Y-BaF3 (stably expressing KIT D820Y mutant kinase), mouse Tel-Kit/N822K-BaF3 (stably expressing KIT N822K mutant kinase), mouse Tel-Kit/Y823D-BaF3 (stably expressing KIT Y823D mutant kinase), mouse Tel-Kit/A829P-BaF3 (stably expressing KIT A829P mutant kinase), GIST-T1-T670I cells of the human gastrointestinal stromal tumor cell line (expressing KIT-T670I mutant gene). The above cell lines were constructed by: amplifying respectively the sequences of human KIT and various mutant kinase regions of KIT via PCR, inserting the fragments respectively into MSCV-Puro vectors having a N-terminal TEL fragment and/or a NPM fragment and/or a TPR fragment (purchased from Clontech), transfecting mouse BaF3 cells with the vectors by means of retrovirus to obtain stably transfected cells, removing the growth factor IL-3, and thereby eventually obtaining cell lines that depend on the transferred protein KIT or various mutants of KIT. The GIST-T1-T670I (expressing C-KIT-T670I mutant gene) cell line was constructed by our laboratory as follows: designing sgRNA that targeted a region around T670 of the KIT gene with CRISPR Design Tool (website: crispr.mit.edu, Zhang Feng Lab), cloning it into pSpCas9(BB)-2A-Puro vector; co-transfecting cells with the resultant vector and a single-stranded oligonucleotide having T670I site mutation that is near to T670, subjecting the resultant to antibiotics screening, followed by dilution, and monocellular culture in a 96-well plate; validating the site T670 of the cells by sequence detection via Sanger sequencing.
(§2) The cells after incubation were detected using CCK-8 (purchased from MedChem Express, Shanghai, China) cell viability assay kit (CCK-8 may be reduced by dehydrogenase in living cells to a highly water-soluble yellow formazan product, and the amount of the resultant formazan is proportional to the number of living cells), the number of living cells were quantified with a microplate reader, and GI50 of the compounds and the control compounds were calculated (the results shown in Table 2 and Table 3).

[1] = system: TEL-KIT-BaF3 (stably expressing KIT wild-type kinase); assay: Proliferation of TEL-KIT-BaF3 cells (CCK-8); format: cell-based, mouse; conditions: Mus musculus, read-out: GI50 TEL-KIT-BaF3
Source text: as §1, §2

TEL-KIT/V559D-BaF3 = assay: Proliferation of TEL-KIT/V559D-BaF3 cells (CCK-8); format: cell-based; conditions: Mus musculus, read-out: GI50 TEL-KIT/V559D-BaF3
Source text: as §1, with “The GIST-T1-T670I (expressing C-KIT-T670I mutant gene) cell line was constructed by our laboratory as follows: designing sgRNA that targeted a region around T670 of the KIT gene with CRISPR Design Tool (website: crispr.mit.edu, Zhang Feng Lab), cloning it into pSpCas9(BB)-2A-Puro vector; co-transfecting cells with the resultant vector and a single-stranded oligonucleotide having T670I site mutation that is near to T670, subjecting the resultant to antibiotics screening, followed by dilution, and monocellular culture in a 96-well plate; validating the site T670 of the cells by sequence detection via Sanger sequencing.” left out

TEL-KIT/V559G-BaF3 = assay: Proliferation of TEL-KIT/V559G-BaF3 cells (CCK-8); format: cell-based; conditions: Mus musculus, read-out: GI50 TEL-KIT/V559G-BaF3
Source text: as §1, with “The GIST-T1-T670I (expressing C-KIT-T670I mutant gene) cell line was constructed by our laboratory as follows: designing sgRNA that targeted a region around T670 of the KIT gene with CRISPR Design Tool (website: crispr.mit.edu, Zhang Feng Lab), cloning it into pSpCas9(BB)-2A-Puro vector; co-transfecting cells with the resultant vector and a single-stranded oligonucleotide having T670I site mutation that is near to T670, subjecting the resultant to antibiotics screening, followed by dilution, and monocellular culture in a 96-well plate; validating the site T670 of the cells by sequence detection via Sanger sequencing.” left out

TEL-KIT/V560D-BaF3 = assay: Proliferation of TEL-KIT/V560D-BaF3 cells (CCK-8); format: cell-based; conditions: Mus musculus, read-out: GI50 TEL-KIT/V560D-BaF3
Source text: as §1, with “The GIST-T1-T670I (expressing C-KIT-T670I mutant gene) cell line was constructed by our laboratory as follows: designing sgRNA that targeted a region around T670 of the KIT gene with CRISPR Design Tool (website: crispr.mit.edu, Zhang Feng Lab), cloning it into pSpCas9(BB)-2A-Puro vector; co-transfecting cells with the resultant vector and a single-stranded oligonucleotide having T670I site mutation that is near to T670, subjecting the resultant to antibiotics screening, followed by dilution, and monocellular culture in a 96-well plate; validating the site T670 of the cells by sequence detection via Sanger sequencing.” left out

TEL-KIT/L576P-BaF3 = assay: Proliferation of TEL-KIT/L576P-BaF3 cells (CCK-8); format: cell-based; conditions: Mus musculus, read-out: GI50 TEL-KIT/L576P-BaF3
Source text: (§3) Compounds as provided herein were further evaluated for their inhibitory effects on proliferation of cancer cells by testing their effects on growth of cancer cells. In this example the following cells were used: primary mouse B cells BaF3 (purchased from ATCC), GIST-T1 cells of the human gastrointestinal stromal tumor cell line (expressing wild-type KIT gene) (purchased from Cosmo Bio Co., Ltd. (Japan)). The present lab further constructed and used the following: mouse Tel-Kit-BaF3 (stably expressing KIT wild-type kinase), mouse Tel-Kit/T670I-BaF3 (stably expressing KIT T670I mutant kinase), mouse Tel-Kit/V559A-BaF3 (stably expressing KIT V559A mutant kinase), mouse Tel-Kit/V559D-BaF3 (stably expressing KIT V559D mutant kinase), mouse Tel-Kit/V559G-BaF3 (stably expressing KIT V559G mutant kinase), mouse Tel-Kit/V560D-BaF3 (stably expressing KIT V560D mutant kinase), mouse Tel-Kit/L576P-BaF3 (stably expressing KIT L576P mutant kinase), mouse Tel-Kit/V654A-BaF3 (stably expressing KIT V654A mutant kinase), mouse Tel-Kit/V654A/V559D-BaF3 (stably expressing KIT V654A V559D mutant kinase), mouse Tel-Kit/T670E-BaF3 (stably expressing KIT T670E mutant kinase), mouse Tel-Kit/T670I/V559D-BaF3 (stably expressing KIT T670I V559D mutant kinase), mouse Tel-Kit/S709F-BaF3 (stably expressing KIT S709F mutant kinase), mouse Tel-Kit/D816E-BaF3 (stably expressing KIT D816E mutant kinase), mouse Tel-Kit/D816H-BaF3 (stably expressing KIT D816H mutant kinase), mouse Tel-Kit/D820E-BaF3 (stably expressing KIT D820E mutant kinase), mouse Tel-Kit/D820G-BaF3 (stably expressing KIT D820G mutant kinase), mouse Tel-Kit/D820Y-BaF3 (stably expressing KIT D820Y mutant kinase), mouse Tel-Kit/N822K-BaF3 (stably expressing KIT N822K mutant kinase), mouse Tel-Kit/Y823D-BaF3 (stably expressing KIT Y823D mutant kinase), mouse Tel-Kit/A829P-BaF3 (stably expressing KIT A829P mutant kinase), GIST-T1-T670I cells of the human gastrointestinal stromal tumor cell line (expressing KIT-T670I mutant gene). […]

TEL-KIT/V654A-BaF3 = assay: Proliferation of TEL-KIT/V654A-BaF3 cells (CCK-8); format: cell-based; conditions: Mus musculus, read-out: GI50 TEL-KIT/V654A-BaF3
Source text: as §1, with “The GIST-T1-T670I (expressing C-KIT-T670I mutant gene) cell line was constructed by our laboratory as follows: designing sgRNA that targeted a region around T670 of the KIT gene with CRISPR Design Tool (website: crispr.mit.edu, Zhang Feng Lab), cloning it into pSpCas9(BB)-2A-Puro vector; co-transfecting cells with the resultant vector and a single-stranded oligonucleotide having T670I site mutation that is near to T670, subjecting the resultant to antibiotics screening, followed by dilution, and monocellular culture in a 96-well plate; validating the site T670 of the cells by sequence detection via Sanger sequencing.” left out

TEL-KIT/N822K-BaF3 = assay: Proliferation of TEL-KIT/N822K-BaF3 cells (CCK-8); format: cell-based; conditions: Mus musculus, read-out: GI50 TEL-KIT/N822K-BaF3
Source text: as §1, with “The GIST-T1-T670I (expressing C-KIT-T670I mutant gene) cell line was constructed by our laboratory as follows: designing sgRNA that targeted a region around T670 of the KIT gene with CRISPR Design Tool (website: crispr.mit.edu, Zhang Feng Lab), cloning it into pSpCas9(BB)-2A-Puro vector; co-transfecting cells with the resultant vector and a single-stranded oligonucleotide having T670I site mutation that is near to T670, subjecting the resultant to antibiotics screening, followed by dilution, and monocellular culture in a 96-well plate; validating the site T670 of the cells by sequence detection via Sanger sequencing.” left out

GIST-T1/T670I = assay: Proliferation of GIST-T1/T670I cells (CCK-8); format: cell-based; conditions: Homo sapiens, read-out: GI50 GIST-T1/T670I
Source text: as §3, §2

Compound | GI50 (BaF3; BaF3, 72 h) | GI50 ([1]; 72 h) | GI50 (TEL-KIT/V559D-BaF3; 72 h) | GI50 (TEL-KIT/V559G-BaF3; 72 h) | GI50 (TEL-KIT/V560D-BaF3; 72 h) | GI50 (TEL-KIT/L576P-BaF3; 72 h) | GI50 (TEL-KIT/V654A-BaF3; 72 h) | GI50 (TEL-KIT/N822K-BaF3; 72 h) | GI50 (GIST-T1/T670I; GISTT1, 72 h) | GI50 (BaF3; BaF3 parent cells, 72 hours, CCK-8) | GI50 ([1]; KIT wild-type, 72 hours, CCK-8) | GI50 (TEL-KIT/V559D-BaF3; 72 hours, CCK-8) | GI50 (TEL-KIT/V559G-BaF3; 72 hours, CCK-8) | GI50 (TEL-KIT/V560D-BaF3; 72 hours, CCK-8) | GI50 (TEL-KIT/L576P-BaF3; 72 hours, CCK-8) | GI50 (TEL-KIT/V654A-BaF3; 72 hours, CCK-8) | GI50 (TEL-KIT/N822K-BaF3; 72 hours, CCK-8) | GI50 (GIST-T1/T670I; GISTT1, 72 hours, CCK-8)
COc1cc2nccc(Oc3ccc(NC(=O)Cc4ccc(C)c(C(F)(F)F)c4)cc3)c2cc1OC [Example 1, N-(4-((6,7-dimethoxyquinolin-4-yl)oxy)phenyl)-2-(4-methyl-3-(trifluoromethyl)phenyl)acetamide] | 7260 nM | 17 nM | 4 nM | < 0.3 nM | 5 nM | 2 nM | 110 nM | 69 nM | 16 nM | – | – | – | – | – | – | – | – | –
COc1cc2nccc(Oc3ccc(NC(=O)Cc4ccc(Cl)c(C(F)(F)F)c4)cc3)c2cc1OC [Example 2, N-(4-((6,7-dimethoxyquinolin-4-yl)oxy)phenyl)-2-(4-chloro-3-(trifluoromethyl)phenyl)-acetamide] | – | – | – | – | – | – | – | – | – | 5970 nM | 1 nM | 6 nM | < 0.3 nM | 4 nM | 1 nM | 320 nM | 26 nM | 11 nM
CCN(CC)CCNC(=O)c1c(C)[nH]c(/C=C2\C(=O)Nc3ccc(F)cc32)c1C [Sunitinib, reference compound] | – | – | – | – | – | – | – | – | – | – | – | 1 nM | 4 nM | 35 nM | 6 nM | 5 nM | 384 nM | 4 nM
